Measured values published in patent publication US7855297B2, “Amide derivatives and medicinal use thereof” (Mitsubishi Tanabe Pharma Corporation, priority 2000, dated 2010).
Where a name gives a salt, the structure may show the parent alone.

For `COc1ccc(CN(C(=O)C2CCCc3ccc(OC)cc32)c2ccc(C(C)C)cc2)nc1` (stereo not shown) (as salt: hydrochloride) (hydrate or solvate) [Example 56, N-(4-isopropylphenyl)-N-[(5-methoxypyridin-2-yl)methyl]-7-methoxy-1,2,3,4-tetrahydronaphthalene-1-carboxamide hydrochloride ½ hydrate], which melting point is on record?
Its melting point is 108 to 110 °C.

Which melting point does the source give for `COc1ccc2c(c1)C(C(=O)N(Cc1ccc(CO)cc1)c1ccc(C(C)C)cc1)CCC2` (stereo not shown) [Example 95, N-{[4-(hydroxymethyl)phenyl]methyl}-N-(4-isopropylphenyl)-7-methoxy-1,2,3,4-tetrahydronaphthalene-1-carboxamide] here?
The melting point was 143.2 °C.

For `CC(C)c1ccc(N(Cc2ccc(N(C)C)cc2)C(=S)C2CCCc3ccccc32)cc1` (stereo not shown) [Example 54, N-[(4-dimethylaminophenyl)methyl]-N-(4-isopropylphenyl)-1,2,3,4-tetrahydronaphthalene-1-carbothioamide], which melting point is on record?
The melting point was 123 to 125 °C.

With `COc1ccc2c(c1)C(C(=O)N(Cc1ccc(S(C)(=O)=O)cc1)c1ccc(C(C)C)cc1)CCC2` (stereo not shown) [Example 35, N-(4-isopropylphenyl)-N-[(4-methylsulfonylphenyl)methyl]-7-methoxy-1,2,3,4-tetrahydronaphthalene-1-carboxamide] as the compound, how does the melting point read?
The melting point was 131 to 132 °C.

With `COc1ccc2c(c1)C(C(=O)N(Cc1ccc(N(C)C)nc1)c1ccc(C(C)C)cc1)CCC2` (stereo not shown) (as salt: hydrochloride) (hydrate or solvate) [Example 55, N-[(6-dimethylaminopyridin-3-yl)methyl]-N-(4-isopropylphenyl)-7-methoxy-1,2,3,4-tetrahydronaphthalene-1-carboxamide hydrochloride ½ hydrate] as the compound, how does the melting point read?
Its melting point is 158 to 160 °C.

For `CC(C)c1ccc(N(Cc2cnn(CCN(C)C)c2)C(=O)C2CCCc3c(O)cccc32)cc1` (stereo not shown) [Example 355, N-({1-[2-(dimethylamino)ethyl]pyrazol-4-yl}methyl)-5-hydroxy-N-(4-isopropylphenyl)-1,2,3,4-tetrahydronaphthalene-1-carboxamide], which melting point is on record?
Its melting point is 92 °C.

Which melting point does the source give for `CC(C)COc1ccc(Br)cc1N(Cc1ccc(N(C)C)cc1)C(=O)C1CCCc2ccccc21` (stereo not shown) [Example 5, N-(5-bromo-2-isobutoxyphenyl)-N-[(4-dimethylaminophenyl)methyl]-1,2,3,4-tetrahydronaphthalene-1-carboxamide] here?
The melting point was 176 to 178 °C.

Which melting point does the source give for `CCc1ccc(N(Cc2ccc(N(C)C)cc2)C(=O)C2CCCc3ccccc32)cc1` (stereo not shown) [Example 1, N-[(4-dimethylaminophenyl)methyl]-N-(4-ethylphenyl)-1,2,3,4-tetrahydronaphthalene-1-carboxamide] here?
The melting point was 109 to 110 °C.

Which melting point does the source give for `CC(C)c1ccc(N(Cc2ccc(N(C)C)cc2)C(=O)C2CCCc3cc(OCCN(C)C)ccc32)cc1` (stereo not shown) (hydrate or solvate) [Example 106, 6-[2-(dimethylamino)ethoxy]-N-[(4-dimethylaminophenyl)methyl]-N-(4-isopropylphenyl)-1,2,3,4-tetrahydronaphthalene-1-carboxamide ⅕ hydrate] here?
Its melting point is 132.6 °C.

For `CC(C)c1ccc(N(Cc2ccc(N(C)C)cc2)C(=O)C2CCCc3ccc(F)cc32)cc1` (stereo not shown) (as salt: hydrochloride) [Example 127, N-[(4-dimethylaminophenyl)methyl]-7-fluoro-N-(4-isopropylphenyl)-1,2,3,4-tetrahydronaphthalene-1-carboxamide hydrochloride], which melting point is on record?
Its melting point is 165.6 °C.

Which melting point does the source give for `COc1ccc2c(c1)C(C(=O)N(Cc1ccc(N)cc1)c1ccc(C(C)C)cc1)CCC2` (stereo not shown) [Example 167, N-[(4-aminophenyl)methyl]-N-(4-isopropylphenyl)-7-methoxy-1,2,3,4-tetrahydronaphthalene-1-carboxamide] here?
Its melting point is 115 to 117 °C.

Which melting point does the source give for `CC(C)c1ccc(N(Cc2ccc(N(C)C)cc2)C(=O)C2CCCc3cc(O)ccc32)cc1` (stereo not shown) [Example 37, N-[(4-dimethylaminophenyl)methyl]-6-hydroxy-N-(4-isopropylphenyl)-1,2,3,4-tetrahydronaphthalene-1-carboxamide] here?
The melting point was 169 to 171 °C.

For `COc1ccc2c(c1)C(C(=O)N(Cc1ccc(OC)nc1)c1ccc(C(C)C)cc1)CCC2` (stereo not shown) (as salt: hydrochloride) [Example 46, N-(4-isopropylphenyl)-N-[(6-methoxypyridin-3-yl)methyl]-7-methoxy-1,2,3,4-tetrahydronaphthalene-1-carboxamide monohydrochloride], which melting point is on record?
Its melting point is 114 to 117 °C.

For `COc1ccc2c(c1)C(C(=O)N(Cc1ccc(N(C)C)cc1)c1ccc(Br)cc1)CCC2` (stereo not shown) (as salt: hydrochloride) [Example 200, N-(4-bromophenyl)-N-[(4-dimethylaminophenyl)methyl]-7-methoxy-1,2,3,4-tetrahydronaphthalene-1-carboxamide hydrochloride], which melting point is on record?
The melting point was 104 to 113 °C.

With `CC(C)c1ccc(N(Cc2ccc(N(C)C)cc2)C(=O)C2CCCc3ccc(O)cc32)cc1` (stereo not shown) [Example 20, N-[(4-dimethylaminophenyl)methyl]-7-hydroxy-N-(4-isopropylphenyl)-1,2,3,4-tetrahydronaphthalene-1-carboxamide] as the compound, how does the melting point read?
The melting point was 214 to 217 °C.

Which melting point does the source give for `CC(C)c1ccc(N(Cc2cnn(CC(F)(F)F)c2)C(=O)C2CCCc3c(O)cccc32)cn1` (stereo not shown) [Example 435, 5-hydroxy-N-(6-isopropylpyridin-3-yl)-N-{[1-(2,2,2-trifluoroethyl)pyrazol-4-yl]methyl}-1,2,3,4-tetrahydronaphthalene-1-carboxamide] here?
The melting point was 127.7 °C.

For `CC(C)c1ccc(N(Cc2ccc(N(C)C)cc2)C(=O)C2CCCc3c(OCCN(C)C)cccc32)cc1` (stereo not shown) (as salt: oxalate) (hydrate or solvate) [Example 113, 5-[2-(dimethylamino)ethoxy]-N-[(4-dimethylaminophenyl)methyl]-N-(4-isopropylphenyl)-1,2,3,4-tetrahydronaphthalene-1-carboxamide oxalate ¼ hydrate], which melting point is on record?
The melting point was 155.7 °C.

For `COc1ccc(CN(C(=O)C2CCCc3c(O)cccc32)c2ccc(C(C)C)nc2)c(OC)n1` (stereo not shown) [Example 133, N-[(2,6-dimethoxypyridin-3-yl)methyl]-5-hydroxy-N-(6-isopropylpyridin-3-yl)-1,2,3,4-tetrahydronaphthalene-1-carboxamide], which melting point is on record?
Its melting point is 164 °C.

Which melting point does the source give for `COc1ccc(N(Cc2ccc(N(C)C)cc2)C(=O)C2CCCc3ccc(F)cc32)cc1` (stereo not shown) (as salt: hydrochloride) (hydrate or solvate) [Example 128, N-[(4-dimethylaminophenyl)methyl]-7-fluoro-N-(4-methoxyphenyl)-1,2,3,4-tetrahydronaphthalene-1-carboxamide hydrochloride ½ hydrate] here?
The melting point was 125.4 °C.

For `CCn1cc(CN(C(=O)C2CCCc3c(OCCCN(C)C)cccc32)c2ccc(C(C)C)cc2)cn1` (stereo not shown) (as salt: oxalate) [Example 267, 5-[3-(dimethylamino)propoxy]-N-[(1-ethylpyrazol-4-yl)methyl]-N-(4-isopropylphenyl)-1,2,3,4-tetrahydronaphthalene-1-carboxamide 3/2 oxalate], which melting point is on record?
The melting point was 142.6 °C.

For `CC(C)c1ccc(N(Cc2ccc(N(C)C)cc2)C(=O)C2CCCc3c(O)cccc32)cc1` (stereo not shown) [Example 17, N-[(4-dimethylaminophenyl)methyl]-5-hydroxy-N-(4-isopropylphenyl)-1,2,3,4-tetrahydronaphthalene-1-carboxamide], which melting point is on record?
The melting point was 200 to 202 °C.

Which melting point does the source give for `CC(C)c1ccc(N(Cc2cnn(CCO)c2)C(=O)C2CCCc3c(O)cccc32)cc1` (stereo not shown) [Example 362, 5-hydroxy-N-{[1-(2-hydroxyethyl)pyrazol-4-yl]methyl}-N-(4-isopropylphenyl)-1,2,3,4-tetrahydronaphthalene-1-carboxamide] here?
The melting point was 110 to 114 °C.
